Values after ≈ are worked out from the molar mass of the structure shown.
System: Escherichia coli
Experiment: Antibacterial activity against Escherichia coli NCTC 10418 infected in po dosed CF mouse compound administered 1 hr prior and 4 hr post infection
Format: functional
Conditions: NCTC 10418, po

Compound	ED50
CCn1cc(C(=O)O)c(=O)c2cc(F)c(N3CCNC(C)C3)c(F)c21 (stereo not given) [LOMEFLOXACIN]	1.87 mg/kg

System: Vibrio cholerae
Experiment: Antimicrobial activity against Vibrio cholerae 01 after 18 to 20 hr by agar dilution method
Format: functional
Conditions: 1

Compound	MIC
CCn1cc(C(=O)O)c(=O)c2cc(F)c(N3CCNC(C)C3)c(F)c21 (stereo not given) [LOMEFLOXACIN]	0.02 µg/mL (≈ 0.0569 µM)

System: Priestia megaterium
Experiment: Antimicrobial activity against Bacillus megaterium after 18 to 20 hr by agar dilution method
Format: functional
Conditions: not given

Compound	MIC
CCn1cc(C(=O)O)c(=O)c2cc(F)c(N3CCNC(C)C3)c(F)c21 (stereo not given) [LOMEFLOXACIN]	19.5 µg/mL (≈ 55.6 µM)

System: Enterobacter
Experiment: Antimicrobial activity against Enterobacter after 18 to 20 hr by agar dilution method
Format: functional
Conditions: not given

Compound	MIC
CCn1cc(C(=O)O)c(=O)c2cc(F)c(N3CCNC(C)C3)c(F)c21 (stereo not given) [LOMEFLOXACIN]	19.5 µg/mL (≈ 55.6 µM)

System: Citrobacter freundii
Experiment: Antimicrobial activity against Citrobacter freundii after 18 to 20 hr by agar dilution method
Format: functional
Conditions: not given

Compound	MIC
CCn1cc(C(=O)O)c(=O)c2cc(F)c(N3CCNC(C)C3)c(F)c21 (stereo not given) [LOMEFLOXACIN]	19.5 µg/mL (≈ 55.6 µM)

System: Salmonella enteritidis
Experiment: Antimicrobial activity against Salmonella enterica subsp. enterica serovar Enteritidis after 18 to 20 hr by agar dilution method
Format: functional
Conditions: not given

Compound	MIC
CCn1cc(C(=O)O)c(=O)c2cc(F)c(N3CCNC(C)C3)c(F)c21 (stereo not given) [LOMEFLOXACIN]	19.5 µg/mL (≈ 55.6 µM)

System: Salmonella typhimurium
Experiment: Antimicrobial activity against Salmonella enterica subsp. enterica serovar Typhimurium after 18 to 20 hr by agar dilution method
Format: functional
Conditions: not given

Compound	MIC
CCn1cc(C(=O)O)c(=O)c2cc(F)c(N3CCNC(C)C3)c(F)c21 (stereo not given) [LOMEFLOXACIN]	4.88 µg/mL (≈ 13.9 µM)

System: Proteus mirabilis
Experiment: Antimicrobial activity against Proteus mirabilis after 18 to 20 hr by agar dilution method
Format: functional
Conditions: not given

Compound	MIC
CCn1cc(C(=O)O)c(=O)c2cc(F)c(N3CCNC(C)C3)c(F)c21 (stereo not given) [LOMEFLOXACIN]	2.44 µg/mL (≈ 6.94 µM)

System: Proteus vulgaris
Experiment: Antimicrobial activity against Proteus vulgaris after 18 to 20 hr by agar dilution method
Format: functional
Conditions: not given

Compound	MIC
CCn1cc(C(=O)O)c(=O)c2cc(F)c(N3CCNC(C)C3)c(F)c21 (stereo not given) [LOMEFLOXACIN]	0.61 µg/mL (≈ 1.74 µM)

System: Edwardsiella tarda
Experiment: Antimicrobial activity against Edwardsiella tarda after 18 to 20 hr by agar dilution method
Format: functional
Conditions: not given

Compound	MIC
CCn1cc(C(=O)O)c(=O)c2cc(F)c(N3CCNC(C)C3)c(F)c21 (stereo not given) [LOMEFLOXACIN]	4.88 µg/mL (≈ 13.9 µM)

System: Escherichia coli
Experiment: Antimicrobial activity against Escherichia coli NCTC 10418 after 18 to 20 hr by agar dilution method
Format: functional
Conditions: not given

Compound	MIC
CCn1cc(C(=O)O)c(=O)c2cc(F)c(N3CCNC(C)C3)c(F)c21 (stereo not given) [LOMEFLOXACIN]	0.61 µg/mL (≈ 1.74 µM)

System: Salmonella typhi
Experiment: Antimicrobial activity against Salmonella enterica subsp. enterica serovar Typhi after 18 to 20 hr by agar dilution method
Format: functional
Conditions: not given

Compound	MIC
CCn1cc(C(=O)O)c(=O)c2cc(F)c(N3CCNC(C)C3)c(F)c21 (stereo not given) [LOMEFLOXACIN]	9.77 µg/mL (≈ 27.8 µM)

System: Salmonella paratyphi
Experiment: Antimicrobial activity against Salmonella enterica subsp. enterica serovar Paratyphi A after 18 to 20 hr by agar dilution method
Format: functional
Conditions: not given

Compound	MIC
CCn1cc(C(=O)O)c(=O)c2cc(F)c(N3CCNC(C)C3)c(F)c21 (stereo not given) [LOMEFLOXACIN]	0.61 µg/mL (≈ 1.74 µM)

System: Vibrio parahaemolyticus
Experiment: Antimicrobial activity against Vibrio parahaemolyticus after 18 to 20 hr by agar dilution method
Format: functional
Conditions: not given

Compound	MIC
CCn1cc(C(=O)O)c(=O)c2cc(F)c(N3CCNC(C)C3)c(F)c21 (stereo not given) [LOMEFLOXACIN]	39.1 µg/mL (≈ 111 µM)

System: Vibrio cholerae
Experiment: Antimicrobial activity against Vibrio cholerae 0139 after 18 to 20 hr by agar dilution method
Format: functional
Conditions: 139

Compound	MIC
CCn1cc(C(=O)O)c(=O)c2cc(F)c(N3CCNC(C)C3)c(F)c21 (stereo not given) [LOMEFLOXACIN]	2.44 µg/mL (≈ 6.94 µM)

System: Vibrio fluvialis
Experiment: Antimicrobial activity against Vibrio fluvialis after 18 to 20 hr by agar dilution method
Format: functional
Conditions: not given

Compound	MIC
CCn1cc(C(=O)O)c(=O)c2cc(F)c(N3CCNC(C)C3)c(F)c21 (stereo not given) [LOMEFLOXACIN]	1.22 µg/mL (≈ 3.47 µM)

System: Vibrio mimicus
Experiment: Antimicrobial activity against Vibrio mimicus after 18 to 20 hr by agar dilution method
Format: functional
Conditions: not given

Compound	MIC
CCn1cc(C(=O)O)c(=O)c2cc(F)c(N3CCNC(C)C3)c(F)c21 (stereo not given) [LOMEFLOXACIN]	1.22 µg/mL (≈ 3.47 µM)

System: Pseudomonas aeruginosa
Experiment: Antimicrobial activity against Pseudomonas aeruginosa after 18 to 20 hr by agar dilution method
Format: functional
Conditions: not given

Compound	MIC
CCn1cc(C(=O)O)c(=O)c2cc(F)c(N3CCNC(C)C3)c(F)c21 (stereo not given) [LOMEFLOXACIN]	4.88 µg/mL (≈ 13.9 µM)

System: Staphylococcus aureus
Experiment: Antimicrobial activity against Staphylococcus aureus after 18 to 20 hr by agar dilution method
Format: functional
Conditions: not given

Compound	MIC
CCn1cc(C(=O)O)c(=O)c2cc(F)c(N3CCNC(C)C3)c(F)c21 (stereo not given) [LOMEFLOXACIN]	0.61 µg/mL (≈ 1.74 µM)

System: Morganella morganii
Experiment: Antimicrobial activity against Morganella morganii after 18 to 20 hr by agar dilution method
Format: functional
Conditions: not given

Compound	MIC
CCn1cc(C(=O)O)c(=O)c2cc(F)c(N3CCNC(C)C3)c(F)c21 (stereo not given) [LOMEFLOXACIN]	1.22 µg/mL (≈ 3.47 µM)

System: Shigella boydii
Experiment: Antimicrobial activity against Shigella boydii after 18 to 20 hr by agar dilution method
Format: functional
Conditions: not given

Compound	MIC
CCn1cc(C(=O)O)c(=O)c2cc(F)c(N3CCNC(C)C3)c(F)c21 (stereo not given) [LOMEFLOXACIN]	9.77 µg/mL (≈ 27.8 µM)

System: Plesiomonas
Experiment: Antimicrobial activity against Plesiomonas after 18 to 20 hr by agar dilution method
Format: functional
Conditions: not given

Compound	MIC
CCn1cc(C(=O)O)c(=O)c2cc(F)c(N3CCNC(C)C3)c(F)c21 (stereo not given) [LOMEFLOXACIN]	1.22 µg/mL (≈ 3.47 µM)

System: Shigella sonnei
Experiment: Antimicrobial activity against Shigella sonnei after 18 to 20 hr by agar dilution method
Format: functional
Conditions: not given

Compound	MIC
CCn1cc(C(=O)O)c(=O)c2cc(F)c(N3CCNC(C)C3)c(F)c21 (stereo not given) [LOMEFLOXACIN]	39.1 µg/mL (≈ 111 µM)

System: Klebsiella pneumoniae
Experiment: Antimicrobial activity against Klebsiella pneumoniae after 18 to 20 hr by agar dilution method
Format: functional
Conditions: not given

Compound	MIC
CCn1cc(C(=O)O)c(=O)c2cc(F)c(N3CCNC(C)C3)c(F)c21 (stereo not given) [LOMEFLOXACIN]	2.44 µg/mL (≈ 6.94 µM)

System: Klebsiella pneumoniae
Experiment: Antimicrobial activity against Klebsiella pneumoniae subsp. ozaenae after 18 to 20 hr by agar dilution method
Format: functional
Conditions: not given

Compound	MIC
CCn1cc(C(=O)O)c(=O)c2cc(F)c(N3CCNC(C)C3)c(F)c21 (stereo not given) [LOMEFLOXACIN]	1.22 µg/mL (≈ 3.47 µM)

From ChEMBL document CHEMBL3045426, “Synthesis, Antiviral and Antibacterial Activities of Isatin Mannich Bases” (Med Chem Res, 2005)
